From ChEMBL document CHEMBL2016479, “Lead optimization of 4,4-biaryl piperidine amides as γ-secretase inhibitors” (Bioorg Med Chem Lett, 2012) come the findings set out here.

Each structure is given as a SMILES string. ≈ marks a conversion by molar mass, not a printed value.

One may read the IC50 as the concentration at which inhibition is half-maximal. As usually defined, the clearance is the volume of plasma or blood freed of the substance per unit of time. High values mean a high capacity for elimination, low ones a low capacity for elimination. The term solubility denotes how much of the substance goes into solution per volume. A high value points to a readily soluble substance. As a reminder, the Papp is a coefficient for how fast a substance crosses the barrier. In general, AUC refers to the area under the concentration-time curve, a measure of exposure. Read a high AUC as more exposure. What is called logD is the decadic logarithm of the distribution of all forms, ionised or not, between an organic phase and buffer at a given pH. A low value points to a more hydrophilic compound. In general, inhibition in vivo refers to the relative decrease from the control value, in per cent. For orientation: half-life means the time needed for the level to fall by half in the phase considered. Low readings indicate fast loss, high ones slow loss.

Series [1] deals with Gamma-secretase. Nature of the series: Inhibition of gamma-secretase in human SH-SY5Y cells co-expressing APP C-terminal fragment SPA4CT assessed as inhibition of amyloid beta 42 production by electrochemiluminescent assay. Type of series: cell-based.
Series [2] concerns the target Gamma-secretase. Briefly: Inhibition of gamma-secretase in human SH-SY5Y cells co-expressing APP C-terminal fragment SPA4CT assessed as inhibition of amyloid beta 40 production by electrochemiluminescent assay. Type of series: cell-based.
Series [3] in a line: Plasma clearance in Sprague-Dawley rat at 0.05 mg/kg, iv. Type of series: ADME, organism-based. Details: dose 0.05 mg/kg, route intravenous.
A short description of series [4]: Solubility of the compound. The class given is physicochemical.
Series [5] is described as follows: Apparent permeability of the compound. The class given is ADME. Particulars: not told.
The nature of series [6]: Ratio of permeability from apical to basolateral side over basolateral to apical side in […] expressing human MDR1. Type of series: ADME, cell-based.
In series [7] the test system is Rattus norvegicus. Briefly: (§1) AUC in Sprague-Dawley rat at 0.05 mg/kg, iv. The class given is ADME, organism-based, Plasma. Details: dose 0.05 mg/kg, route intravenous. Particulars: in vivo.
The nature of series [8]: Volume of distribution at steady state in Sprague-Dawley rat at 0.05 mg/kg, iv. The class given is ADME, organism-based. Details: dose 0.05 mg/kg, route intravenous. Particulars: in vivo, read-out: Vdss.
Series [9] in a line: Drug uptake in APP-YAC transgenic mouse brain at 100 mg/kg, po after 6 hrs. The class given is ADME, organism-based. Details: dose 100 mg/kg, route oral. Particulars: read-out: Drug uptake.
The nature of series [10]: Lipophilicity, log D of the compound. Particulars: octanol/water. The class given is physicochemical.
Series [11] relates to Mus musculus. Nature of the series: Anti-Alzheimer's disease activity in APP-YAC transgenic mouse model assessed as reduction in amyloid beta 42 production at 100 mg/kg, po. Type of series: functional.
Series [12] in a line: Half life in Sprague-Dawley rat at 0.05 mg/kg, iv. The class given is ADME, organism-based. Details: dose 0.05 mg/kg, route intravenous. Particulars: in vivo.
A short description of series [13]: Drug uptake in APP-YAC transgenic mouse plasma at 100 mg/kg, po after 6 hrs. Type of series: ADME, organism-based. Details: dose 100 mg/kg, route oral.
Series [14] can be described thus: as §1. The class given is ADME, organism-based, Plasma. Details: dose 0.05 mg/kg, route intravenous. Particulars: Sprague-Dawley, plasma.

Take `CC(C)(O)C(=O)N1CCC(c2cc(F)ccc2F)(S(=O)(=O)c2ccc(Cl)cc2)CC1`: the values for the half-inhibitory concentration (IC50) in series [1] and in [2] were 120 nM and 130 nM, respectively. The compound also gave a clearance in [3] of 75.1 mL/min/kg.
Turning to `O=C(c1ccccc1C(F)(F)F)N1CCC(c2cc(F)ccc2F)(S(=O)(=O)c2ccc(Cl)cc2)CC1`, the half-inhibitory concentration (IC50) came out at 210 nM in [1] and 260 nM in [2]. In series [3], the clearance came out at 31.9 mL/min/kg.
The like results for `O=C(c1ncccc1C(F)(F)F)N1CCC(c2cc(F)ccc2F)(S(=O)(=O)c2ccc(Cl)cc2)CC1` were, in that order, 50 nM, 70 nM and 80.5 mL/min/kg.
For `Cn1ccnc1C(=O)N1CCC(c2cc(F)ccc2F)(S(=O)(=O)c2ccc(Cl)cc2)CC1`, the values for the IC50 in series [1] and in [2] were 160 nM and 200 nM, respectively. Further, the clearance in [3] is greater than 84 mL/min/kg.
`O=C(N1CC[C@](c2cc(F)ccc2F)(S(=O)(=O)c2ccc(Cl)cc2)[C@@H](O)C1)C1(C(F)(F)F)CC1` (single isomer, unassigned; 11b): the half-maximal inhibitory concentration (IC50) in series [1] and in series [2] was 90 nM each time.
Consider `O=C(N1CCC(c2cc(F)ccc2F)(S(=O)(=O)c2ccc(Cl)cc2)CC1)C1(C(F)(F)F)CC1`, for which, in series [4], the concentration in solution (solubility) was 26.8 µM (≈ 13.6 µg/mL). In addition, the apparent permeability coefficient (Papp) in series [5] was 37.3 ×10⁻⁶ cm/s. Moreover, the Ratio in [6] is recorded as 0.9. The compound also gave an exposure (AUC) in [7] of 1.19 µM·h. Also, in series [8], the Vd came out at 3.1 L. Also, the concentration at 6 h in [9] stood at 1180 nM; in series [13], 650 nM. This compound yielded a log distribution coefficient (logD) in series [10] of 3.76. Further, the IC50 in series [1] and in series [2] was 30 nM each time. In series [11], the inhibition in vivo at 100 mg/kg worked out at 37%. Besides, the half-life in series [12] was 3.5 h.
As for `CC1(C(=O)N2CCC(c3cc(F)ccc3F)(S(=O)(=O)c3ccc(Cl)cc3)CC2)COC1`, the IC50 is 640 nM in [1] and 880 nM in series [2].
Take `COC(=O)C1(C(=O)N2CCC(c3cc(F)ccc3F)(S(=O)(=O)c3ccc(Cl)cc3)CC2)CC1`: the half-maximal inhibitory concentration (IC50) in series [1] amounted to 50 nM; in series [2], 100 nM. The compound also returned a clearance in [3] greater than 84 mL/min/kg.
Turning to `Cn1cc(C(=O)N2CCC(c3cc(F)ccc3F)(S(=O)(=O)c3ccc(Cl)cc3)CC2)c(C(F)(F)F)n1`, in series [4], the solubility was determined as 30.6 µM (≈ 16.8 µg/mL). Moreover, the Papp in series [5] was 30.7 ×10⁻⁶ cm/s. Further, the Ratio in [6] worked out at 1.8. In addition, the exposure (AUC) in series [14] came to 0.23 µM·h. Besides, the Vd in series [8] was 11.3 L. Besides, the values for the concentration at 6 h in series [9] and in [13] were 520 nM and 1780 nM, respectively. This compound also returned a logD in series [10] of 3.36. For the same compound, the IC50 was 120 nM in series [1] and 160 nM in series [2]. The inhibition in vivo at 100 mg/kg in series [11] turned out to be 17%. The half-life in series [12] is 2.05 h. The compound further registered a clearance in series [3] greater than 84 mL/min/kg.
As for `O=C(CCC(F)(F)F)N1CCC(c2cc(F)ccc2F)(S(=O)(=O)c2ccc(Cl)cc2)CC1`, the values for the IC50 in series [1] and in [2] were 420 nM and 400 nM, respectively.
Regarding `O=C(N1CC[C@](c2cc(F)ccc2F)(S(=O)(=O)c2ccc(Cl)cc2)[C@H](O)C1)C1(C(F)(F)F)CC1` (single isomer, unassigned; 12c), the 50% inhibitory concentration (IC50) in series [1] and in series [2] was 10 nM throughout. The clearance in series [3] is 5.7 mL/min/kg.
For the compound `O=C(N1CCC(c2cc(F)ccc2F)(S(=O)(=O)c2ccc(Cl)cc2)CC1)C1(C(F)(F)F)CCCCC1`, the half-maximal inhibitory concentration (IC50) was 180 nM in [1] and 220 nM in series [2].
For `Cn1nc(C(F)(F)F)c(C(=O)N2CCC(c3cc(F)ccc3F)(S(=O)(=O)c3ccc(Cl)cc3)CC2)c1Cl`, the values for the IC50 in [1] and in series [2] were 190 nM and 230 nM, respectively. In series [3], this compound returned a clearance of 79 mL/min/kg.
Take `O=C(CC(F)(F)F)N1CCC(c2cc(F)ccc2F)(S(=O)(=O)c2ccc(Cl)cc2)CC1`: the IC50 in [1] turned out to be 90 nM; in [2] it was 80 nM. The same compound registered a clearance in series [3] greater than 84 mL/min/kg.
With `O=C(N1CCC(c2cc(F)ccc2F)(S(=O)(=O)c2ccc(Cl)cc2)CC1)C1(C(F)(F)F)CCCC1`, the IC50 was found to be 110 nM in series [1] and 140 nM in [2]. The compound further returned a clearance in series [3] greater than 84 mL/min/kg.
With `O=C(N1CC[C@](c2cc(F)ccc2F)(S(=O)(=O)c2ccc(Cl)cc2)[C@@H](O)C1)C1(C(F)(F)F)CC1` (single isomer, unassigned; 11c), the figures for the IC50 in series [1] and in series [2] were 2390 nM and 1790 nM, respectively.
The like results for `O=C(c1cnc(Cl)nc1C(F)(F)F)N1CCC(c2cc(F)ccc2F)(S(=O)(=O)c2ccc(Cl)cc2)CC1` were, in that order, greater than 10000 nM and greater than 10000 nM.
For the compound `CC1(C(=O)N2CCC(c3cc(F)ccc3F)(S(=O)(=O)c3ccc(Cl)cc3)CC2)CC1`, the IC50 came out at 50 nM in series [1] and 70 nM in series [2]. The clearance in [3] was greater than 84 mL/min/kg.
For `O=C(c1cnc(Cl)cc1C(F)(F)F)N1CCC(c2cc(F)ccc2F)(S(=O)(=O)c2ccc(Cl)cc2)CC1`, the IC50 worked out at 970 nM in series [1] and 1090 nM in series [2].
On to `COc1ccc2c(C(=O)N3CCC(c4cc(F)ccc4F)(S(=O)(=O)c4ccc(Cl)cc4)CC3)cn(C)c2c1`, for which the 50% inhibitory concentration (IC50) stood at 70 nM in series [1] and 90 nM in [2]. This compound showed a clearance in series [3] greater than 84 mL/min/kg.
The like results for `O=C(c1cnccc1C(F)(F)F)N1CCC(c2cc(F)ccc2F)(S(=O)(=O)c2ccc(Cl)cc2)CC1` were, in that order, 110 nM, 130 nM and greater than 84 mL/min/kg.
`O=C(N1CC[C@](c2cc(F)ccc2F)(S(=O)(=O)c2ccc(Cl)cc2)[C@H](O)C1)C1(C(F)(F)F)CC1` (single isomer, unassigned; 12b): the figures for the half-inhibitory concentration (IC50) in series [1] and in series [2] were 80 nM and 110 nM, respectively.
Compound `O=C(N1CC[C@](c2cc(F)ccc2F)(S(=O)(=O)c2ccc(Cl)cc2)[C@H](O)C1)C1(C(F)(F)F)CC1` (racemic) displayed a solubility in [4] of 174 µM (≈ 91.1 µg/mL). Further, in series [5], the apparent permeability coefficient (Papp) is 31.1 ×10⁻⁶ cm/s. Also, the Ratio in series [6] was found to be 1.2. This compound also displayed an AUC in [14] of 3.51 µM·h. Also, in series [8], the Vd is 1.65 L. For the same compound, the concentration at 6 h was found to be 7060 nM in series [9] and 11100 nM in series [13]. Further, the log distribution coefficient (logD) in series [10] was found to be 3.27. In addition, the IC50 in series [1] and in [2] was 40 nM throughout. For the same compound, the inhibition in vivo at 100 mg/kg in series [11] amounted to 76%. Also, the half-life in series [12] was 1.6 h.
`COc1ccc2c(C(=O)N3CCC(c4cc(F)ccc4F)(S(=O)(=O)c4ccc(Cl)cc4)CC3)c[nH]c2c1`: the IC50 in series [1] was determined as 80 nM; in series [2] it was 270 nM. This compound also returned a clearance in series [3] greater than 84 mL/min/kg.
For `O=C(N1CCC(c2cc(F)ccc2F)(S(=O)(=O)c2ccc(Cl)cc2)CC1)C1(C(F)(F)F)CCC1`, the IC50 in [1] came out at 60 nM; in [2] it was 70 nM. Also, the clearance in series [3] stood at 46.2 mL/min/kg.
In the case of `O=C(N1CC[C@](c2cc(F)ccc2F)(S(=O)(=O)c2ccc(Cl)cc2)[C@@H](O)C1)C1(C(F)(F)F)CC1` (racemic), the half-inhibitory concentration (IC50) amounted to 190 nM in [1] and 250 nM in series [2].
